The NIST ThermoML archive (doi:10.1016/j.fluid.2011.03.005)

How the values were obtained:
[1] = Molar enthalpy of transition or fusion; conditions: Crystal; DSC
[2] = for mass density: 101.33 kPa, Liquid, Vibrating tube method

CCC[N+]1(C)CCCCC1.O=S(=O)([N-]S(=O)(=O)C(F)(F)F)C(F)(F)F
Conditions | Molar enthalpy of transition or fusion [kcal/mol]
[1] | 6.12

[2]
Conditions | mass density [kg/m3]
293.15 K | 1414.1
298.15 K | 1409.6
303.15 K | 1405.3
308.15 K | 1401
313.15 K | 1396.6
318.15 K | 1392.3
323.15 K | 1388
328.15 K | 1383.7
333.15 K | 1379.4
338.15 K | 1375.1
343.15 K | 1370.9
348.15 K | 1366.6
353.15 K | 1362.3
358.15 K | 1358.1
363.15 K | 1353.9

Conditions | Normal melting temperature [°C]
[2], Crystal, DTA | 12.6
